Converted amounts (≈) assume the structure as drawn. “And” between values parts separate entries of the source, which are not always exact repeats. Identical values can stand only once. Like-named read-outs stand apart in the source and are kept apart here.
Columns and labels:
[1] = target: p97 ATPase (Homo sapiens, UniProt P55072); test: p97 ATPase assay; format: biochemical; conditions: for IC50: IC50 ATPase, triplicate, mean ±SD
[2] = system: ODD-Luc (p97-independent proteasome substrate); test: ODD-Luc reporter degradation assay, dual reporter HeLa cell line; format: cell-based; conditions: Homo sapiens, read-out: IC50 ODD-Luc
[3] = system: HCT15; test: Cytotoxicity / antiproliferative activity; format: cell-based; conditions: Homo sapiens
[4] = system: SW403; test: Cytotoxicity / antiproliferative activity; format: cell-based; conditions: Homo sapiens
[5] = system: NCI 60 cancer cell lines; test: NCI 60-cell-line screen; format: cell-based; conditions: 48 h; for Mean GP: mean of 60 NCI cell lines ±SD
[6] = Aqueous solubility; format: physicochemical; conditions: aqueous buffer
[7] = PAMPA; format: in vitro ADME; conditions: acceptor pH 7.4; for Papp: PAMPA; for PAMPA Pe: in the presence of 20% CH3CN
[8] = Plasma protein binding; format: in vitro ADME; conditions: human
[9] = Plasma protein binding; format: in vitro ADME; conditions: mouse
[10] = Plasma stability; format: in vitro ADME; conditions: human
[11] = Plasma stability; format: in vitro ADME; conditions: mouse
[12] = Hepatic microsome stability; format: in vitro ADME; conditions: human, liver microsomes
[13] = Hepatic microsome stability; format: in vitro ADME; conditions: mouse, liver microsomes
[14] = Hepatic toxicity; format: cell-based; conditions: human, Fa2N-4 immortalized human hepatocytes
[15] = system: poly(ADP-ribose) polymerase (PARP); test: PARP cleavage immunoblot, SW403 cells; format: cell-based; conditions: 2 h
[16] = system: HMEC, PHMLEB, PHMLER cells; test: Cellular viability; format: cell-based, human; conditions: 24 h, CellTiter-Glo
[17] = system: caspases 3 and 7; test: Caspase 3 and 7 activity in colon cancer cell lines; format: cell-based; conditions: multiple colon cancer cell lines; dose- and time-dependent
[18] = target: 5-HT5a (Homo sapiens, UniProt P47898); test: CNS panel binding; conditions: 5HT5a receptor
Chain of 5-HT5a (P47898 whole entry, species assumed, the tested form may be a part): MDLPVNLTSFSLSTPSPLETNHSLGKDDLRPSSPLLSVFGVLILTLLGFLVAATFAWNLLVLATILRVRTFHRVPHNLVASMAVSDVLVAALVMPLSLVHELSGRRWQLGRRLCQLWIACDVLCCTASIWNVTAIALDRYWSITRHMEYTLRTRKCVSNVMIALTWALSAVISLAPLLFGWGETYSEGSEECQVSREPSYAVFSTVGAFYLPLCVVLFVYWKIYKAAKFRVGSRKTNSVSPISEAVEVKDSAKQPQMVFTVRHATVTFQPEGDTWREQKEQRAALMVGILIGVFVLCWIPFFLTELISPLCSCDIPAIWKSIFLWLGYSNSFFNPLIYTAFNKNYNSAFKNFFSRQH

[19] = target: JAK1 domain1 (Homo sapiens, UniProt P23458); test: KiNativ profiling; format: binding; conditions: 20 μM, Other
Chain of JAK1 domain1 (P23458 whole entry, the tested form may be a part): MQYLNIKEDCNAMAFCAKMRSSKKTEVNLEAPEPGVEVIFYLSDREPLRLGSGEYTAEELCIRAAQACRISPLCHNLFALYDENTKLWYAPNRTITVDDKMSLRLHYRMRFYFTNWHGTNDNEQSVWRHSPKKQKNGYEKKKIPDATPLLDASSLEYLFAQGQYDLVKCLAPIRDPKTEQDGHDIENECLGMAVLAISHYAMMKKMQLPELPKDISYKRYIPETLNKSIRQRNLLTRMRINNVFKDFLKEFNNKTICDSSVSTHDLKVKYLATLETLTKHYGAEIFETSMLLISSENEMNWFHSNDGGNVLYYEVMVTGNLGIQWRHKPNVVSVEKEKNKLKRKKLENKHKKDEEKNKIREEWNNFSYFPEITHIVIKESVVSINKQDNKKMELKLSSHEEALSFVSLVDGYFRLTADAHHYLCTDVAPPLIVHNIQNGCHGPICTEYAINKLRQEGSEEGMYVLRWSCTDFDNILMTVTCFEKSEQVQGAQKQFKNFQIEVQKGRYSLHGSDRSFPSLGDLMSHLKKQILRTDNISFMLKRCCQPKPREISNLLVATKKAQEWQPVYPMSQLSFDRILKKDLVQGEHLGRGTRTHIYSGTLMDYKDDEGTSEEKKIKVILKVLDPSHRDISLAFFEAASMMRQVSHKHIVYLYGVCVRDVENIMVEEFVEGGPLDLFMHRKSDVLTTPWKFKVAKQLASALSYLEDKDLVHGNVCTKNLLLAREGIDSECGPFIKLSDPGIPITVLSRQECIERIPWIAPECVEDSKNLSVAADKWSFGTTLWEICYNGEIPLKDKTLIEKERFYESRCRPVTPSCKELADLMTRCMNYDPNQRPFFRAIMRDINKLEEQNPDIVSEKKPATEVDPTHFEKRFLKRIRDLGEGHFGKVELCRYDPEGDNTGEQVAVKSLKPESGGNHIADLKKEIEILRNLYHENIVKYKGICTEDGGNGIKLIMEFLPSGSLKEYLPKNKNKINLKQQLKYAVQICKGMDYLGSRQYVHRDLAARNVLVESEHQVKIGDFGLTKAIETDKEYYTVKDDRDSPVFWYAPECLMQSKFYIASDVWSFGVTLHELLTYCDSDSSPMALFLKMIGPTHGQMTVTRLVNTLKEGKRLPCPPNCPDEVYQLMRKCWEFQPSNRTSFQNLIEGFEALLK

[20] = target: PIP5K3 (Homo sapiens, UniProt Q9Y2I7); test: KiNativ profiling; format: binding; conditions: 20 μM, ATP
Chain of PIP5K3 (Q9Y2I7 whole entry): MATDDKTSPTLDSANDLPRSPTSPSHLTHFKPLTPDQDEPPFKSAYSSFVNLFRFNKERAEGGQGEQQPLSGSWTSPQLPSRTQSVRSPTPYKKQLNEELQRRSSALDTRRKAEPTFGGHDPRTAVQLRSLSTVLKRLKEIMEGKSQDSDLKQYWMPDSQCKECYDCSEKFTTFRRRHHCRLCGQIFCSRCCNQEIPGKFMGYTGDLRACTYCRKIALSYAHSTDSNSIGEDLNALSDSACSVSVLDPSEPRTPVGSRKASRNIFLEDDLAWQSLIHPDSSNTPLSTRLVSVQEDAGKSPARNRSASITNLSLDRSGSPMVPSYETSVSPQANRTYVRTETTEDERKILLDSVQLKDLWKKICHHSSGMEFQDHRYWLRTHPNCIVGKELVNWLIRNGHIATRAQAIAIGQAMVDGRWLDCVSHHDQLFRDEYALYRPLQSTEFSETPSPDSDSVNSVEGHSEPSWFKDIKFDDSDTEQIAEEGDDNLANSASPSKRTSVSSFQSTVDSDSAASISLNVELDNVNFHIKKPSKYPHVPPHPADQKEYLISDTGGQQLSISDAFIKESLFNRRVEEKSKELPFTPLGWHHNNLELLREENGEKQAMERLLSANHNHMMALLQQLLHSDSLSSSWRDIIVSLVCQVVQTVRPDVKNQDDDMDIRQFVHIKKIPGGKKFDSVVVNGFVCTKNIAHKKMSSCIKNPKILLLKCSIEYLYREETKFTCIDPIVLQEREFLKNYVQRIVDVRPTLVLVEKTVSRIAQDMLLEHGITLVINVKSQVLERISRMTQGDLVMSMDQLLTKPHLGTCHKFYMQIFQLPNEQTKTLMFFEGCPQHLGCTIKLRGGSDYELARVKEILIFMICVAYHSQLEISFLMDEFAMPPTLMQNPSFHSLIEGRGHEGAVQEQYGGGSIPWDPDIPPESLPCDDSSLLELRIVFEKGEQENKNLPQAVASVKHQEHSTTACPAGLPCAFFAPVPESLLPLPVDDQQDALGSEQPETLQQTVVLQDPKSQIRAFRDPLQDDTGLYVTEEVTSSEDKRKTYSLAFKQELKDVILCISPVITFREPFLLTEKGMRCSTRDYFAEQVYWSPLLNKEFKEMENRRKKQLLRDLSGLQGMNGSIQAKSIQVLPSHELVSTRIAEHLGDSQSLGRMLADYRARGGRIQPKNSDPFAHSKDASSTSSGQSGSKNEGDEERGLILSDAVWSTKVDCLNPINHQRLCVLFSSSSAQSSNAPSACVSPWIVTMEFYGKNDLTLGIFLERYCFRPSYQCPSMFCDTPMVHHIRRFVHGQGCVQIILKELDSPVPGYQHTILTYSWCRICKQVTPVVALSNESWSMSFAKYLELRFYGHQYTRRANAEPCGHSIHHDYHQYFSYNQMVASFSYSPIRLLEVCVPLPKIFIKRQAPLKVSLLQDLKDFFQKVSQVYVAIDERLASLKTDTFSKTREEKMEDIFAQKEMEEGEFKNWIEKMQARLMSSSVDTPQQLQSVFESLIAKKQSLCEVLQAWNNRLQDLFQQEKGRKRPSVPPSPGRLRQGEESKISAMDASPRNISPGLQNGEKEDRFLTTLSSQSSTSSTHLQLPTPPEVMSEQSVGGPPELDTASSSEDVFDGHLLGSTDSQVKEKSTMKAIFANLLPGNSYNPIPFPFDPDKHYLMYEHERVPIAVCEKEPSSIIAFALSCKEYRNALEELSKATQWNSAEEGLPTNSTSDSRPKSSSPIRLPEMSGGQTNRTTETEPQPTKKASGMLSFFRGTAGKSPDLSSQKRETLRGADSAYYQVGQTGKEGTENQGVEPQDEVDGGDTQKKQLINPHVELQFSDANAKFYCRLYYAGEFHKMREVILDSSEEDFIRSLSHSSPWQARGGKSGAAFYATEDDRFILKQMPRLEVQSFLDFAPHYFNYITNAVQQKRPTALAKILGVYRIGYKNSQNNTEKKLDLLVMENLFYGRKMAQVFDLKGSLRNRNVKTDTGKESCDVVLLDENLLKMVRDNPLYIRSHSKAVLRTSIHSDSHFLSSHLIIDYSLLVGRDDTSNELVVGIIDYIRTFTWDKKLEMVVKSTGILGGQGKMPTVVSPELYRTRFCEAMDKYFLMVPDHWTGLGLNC

[21] = system: LC3-II; test: Autophagy reporter LC3-II immunoblot; conditions: for accumulation of lipidated LC3-II: HEK293, 5 h
[22] = system: ubiquitin conjugates; test: Ubiquitin conjugate accumulation immunoblot, SW403 cells; conditions: 5–10 μM; nuclear plus membrane and cytosolic compartments
[23] = system: ∼170 kinases; test: KiNativ kinase profiling, whole panel, PC3 cell lysate; format: binding, Homo sapiens; conditions: 20 μM
[24] = HCT-15, 24 h, read-out: Cytotoxicity GI50 HCT15 24 h
[25] = HCT-15, 72 h, read-out: Cytotoxicity GI50 HCT15 72 h
[26] = SW-403, 24 h, read-out: Cytotoxicity GI50 SW403 24 h
[27] = SW-403, 72 h, read-out: Cytotoxicity GI50 SW403 72 h

Chain of p97 ATPase (P55072 whole entry): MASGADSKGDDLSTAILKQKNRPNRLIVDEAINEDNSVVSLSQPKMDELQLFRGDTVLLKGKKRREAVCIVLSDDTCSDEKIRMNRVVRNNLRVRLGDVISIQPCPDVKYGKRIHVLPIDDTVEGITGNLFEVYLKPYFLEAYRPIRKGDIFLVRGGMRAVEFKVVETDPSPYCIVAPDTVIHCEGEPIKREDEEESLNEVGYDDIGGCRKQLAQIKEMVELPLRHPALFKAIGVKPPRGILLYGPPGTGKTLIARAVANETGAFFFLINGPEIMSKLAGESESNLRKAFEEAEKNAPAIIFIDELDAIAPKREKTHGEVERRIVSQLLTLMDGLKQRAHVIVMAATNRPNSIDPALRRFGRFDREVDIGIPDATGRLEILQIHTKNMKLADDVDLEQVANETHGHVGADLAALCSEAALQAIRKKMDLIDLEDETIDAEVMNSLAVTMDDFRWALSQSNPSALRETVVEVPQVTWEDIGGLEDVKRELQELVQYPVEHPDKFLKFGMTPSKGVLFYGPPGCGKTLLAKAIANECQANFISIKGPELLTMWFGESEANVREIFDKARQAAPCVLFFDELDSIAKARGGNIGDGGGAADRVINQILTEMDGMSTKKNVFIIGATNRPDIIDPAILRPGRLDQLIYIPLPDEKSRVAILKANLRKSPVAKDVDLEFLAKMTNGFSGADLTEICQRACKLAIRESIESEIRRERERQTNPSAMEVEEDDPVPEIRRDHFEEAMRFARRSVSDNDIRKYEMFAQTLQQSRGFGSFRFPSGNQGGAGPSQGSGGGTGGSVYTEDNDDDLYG

| Compound | Ki [1] | mechanism of p97 inhibition with respect to ATP [1] | IC50 [1] | IC50 [2] | GI50 [3, 24] | GI50 [3, 25] | GI50 [4, 26] | GI50 [4, 27] | Mean GP [5] | solubility ([6]; pH 5, aqueous buffer) | solubility ([6]; pH 6.2, aqueous buffer) | solubility ([6]; pH 7.4, aqueous buffer) | fraction unbound at 1 μM [8] | fraction unbound at 10 μM [8] | fraction unbound at 1 μM [9] | fraction unbound at 10 μM [9] | remaining at 3 h [10] | remaining at 3 h [11] | remaining at 1 h [12] | remaining at 1 h [13] | also measured |
| --- | --- | --- | --- | --- | --- | --- | --- | --- | --- | --- | --- | --- | --- | --- | --- | --- | --- | --- | --- | --- | --- |
| COc1cccc2c(NCc3ccccc3)nc(-n3c(N)nc4ccccc43)nc12 [ML240, 2-(2-Amino-1H-benzo[d]imidazol-1-yl)-N-benzyl-8-methoxyquinazolin-4-amine] | 220 nM | competitively | ~100 nM and 100 nM | 28000 ± 7000 nM | 760 ± 140 nM | 540 ± 190 nM | 500 ± 70 nM | 500 ± 100 nM | −84.5±15.5% | 0.35 µg/mL (≈ 0.883 µM) | 0.33 µg/mL (≈ 0.832 µM) | 0.27 µg/mL (≈ 0.681 µM) | 0.0047 | 0.0029 | 0.0027 | 0.0037 | 100% | 100% | 54.3% | 0.63% | Highest GP ([5]; least inhibited individual cancer cell line): −43.8 (HS 578T) %; Lowest GP ([5]; most inhibited individual cancer cell line): −100.0 (OVCAR-4) %; Papp ([7]; PAMPA Pe, donor pH 5.0): 357 ×10⁻⁶ cm/s; Papp ([7]; PAMPA Pe, donor pH 6.2): 628 ×10⁻⁶ cm/s; Papp ([7]; pH 7.4, PAMPA Pe, donor pH 7.4): < 60.3 ×10⁻⁶ cm/s; CC50 [14]: 8500 nM; cleavage of PARP [15]: induced efficient cleavage; potency on normal vs immortalized and tumorigenic cell lines [16]: slightly greater potency toward the immortalized and transformed cells; induction of caspase activity [17]: induced caspase activity; Ki [18]: 2500 nM; % Inhibition [19]: > 50%; % Inhibition [20]: > 50%; time of LC3-II accumulation after addition of drug ([21]; HCT116, 10 μM, as early as): 10 min; accumulation of lipidated LC3-II [21]: induced accumulation; accumulation of ubiquitin conjugates [22]: caused accumulation of ubiquitin conjugates |
| c1ccc(CNc2nc(N3CCOc4ccccc43)nc3c2CCCC3)cc1 [ML241, 2-(2H-Benzo[b][1,4]oxazin-4(3H)-yl)-N-benzyl-5,6,7,8-tetrahydroquinazolin-4-amine] | 350 nM | competitively | ~100 nM and 100 nM | 46000 ± 8000 nM | 53000 ± 5000 nM | 13000 ± 4000 nM | 33000 ± 7000 nM | 12000 ± 3000 nM | 92.8±22.8% | 28 µg/mL (≈ 75.2 µM) | 0.13 µg/mL (≈ 0.349 µM) | 0.2 µg/mL (≈ 0.537 µM) | 0.0003 | 0.0005 | 0.0005 | 0.0009 | 100% | 100% | 19% | 2.57% | PAMPA Pe ([7]; donor pH 5.0): 1164 ×10⁻⁶ cm/s; PAMPA Pe ([7]; donor pH 6.2): 2504 ×10⁻⁶ cm/s; PAMPA Pe ([7]; donor pH 7.4): 2278 ×10⁻⁶ cm/s; CC50 [14]: > 50000 nM; inhibition of labeling across the panel [23]: did not appreciably inhibit labeling; accumulation of lipidated LC3-II [21]: lack of effect; accumulation of ubiquitin conjugates [22]: caused accumulation of ubiquitin conjugates |
